Test results taken from patent publication US20220323443A1, “COMBINATION THERAPY FOR CANCER TREATMENT” (TAKEDA PHARMACEUTICAL COMPANY LIMITED, priority 2019, published 2022).

What was measured:
[1] = test system: PHTXM-79Es human primary esophagus cancer xenografts; experiment: In vivo combination study, Patient Derived Xenograft; set-up: species or system mouse; key to Result (combination with Compound 1, tumor growth): synergistic if the synergy score was less than 0; additive if the synergy score wasn't statistically different from 0; If the synergy score was greater than zero, but the mean AUC for the combination was lower than the lowest mean AUC among the two single agent treatments, then the combination was sub-additive; If the synergy score was greater than zero, and the mean AUC for the combination was greater than the mean AUC for at least one of the single agent treatments, then the combination was antagonistic; settings: for antitumor activity: combined with Compound 1, PHTXM-79Es human primary esophagus cancer xenografts
Description: (§1) To investigate in vivo antitumor activity of Compound 1 in combination with other agents, tests using Cell Derived Xenograft (CDX), Patient Derived Xenograft (PDX) and Syngeneic mouse tumor isograft model were conducted. Cells or Patient Derived Tumors were inoculated by one method of the following two methods (Method A and B) as shown Table 7.
(§2) Method A; Cells were maintained in either immune deficient nude mice or immune competent mice by subcutaneous inoculation of tumor cells at various concentrations into respected mice. Method B: Patient Derived Tumor s were maintained in nude mice by subcutaneous inoculation of tumor pieces (approx. 2×2×2 mm) into nude mice. Mice with tumor size of approximately 50 mm^3 (e.g., 40-75 mm^3) for syngeneic mouse studies or 200 mm^3 (e.g., 110-270 mm^3) for xenograft studies were randomly assigned to dose groups on the day (Day 0) before start date of dosing.
(§3) Compound 1 (crystalline form I) was suspended in 0.5 w/v % methylcellulose and administered orally to mice. Antibodies which administered in the experiment were described in Table 8.
(§4) Tumor size was measured by caliper and tumor volume was estimated using the equation V=(LW^2)/2, where L and W are tumor length and width, respectively and reported in cubic millimeters.
(§5) These values were compared across treatment groups to assess whether the differences in the trends over time were statistically significant. To compare pairs of treatment groups, the following mixed-effects linear regression model was fit to the data using the maximum likelihood method:
(§6) For synergy analyses, the observed differences in the log tumor values were used to calculate AUC values for each animal. In instances when an animal in a treatment group was removed from the study, the last observed tumor value was carried forward through all subsequent time points. The AUC for the control, or vehicle, group was calculated using the predicted values from the pairwise models described above. We defined a measure of synergy as follows:
(§7) where Ak and Bk are the k^th animal in the individual treatment groups and ABk is the k^th animal in combination treatment group. AUCcd is the model-predicted AUC for the control group and was treated as a constant with no variability. The standard error of the synergy score was calculated as the square root of the sum of squared standard errors across groups A, B, and AB. The degrees of freedom were estimated using the Welch-Satterthwaite equation. A hypothesis test was performed to determine if the synergy score differed from 0. P values were calculated by dividing the synergy score by its standard error and tested against a t-distribution (two-tailed) with the above-calculated degrees of freedom.
(§8) The effect was classified into four different categories. It was considered synergistic if the synergy score was less than 0 and additive if the synergy score wasn't statistically different from 0. If the synergy score was greater than zero, but the mean AUC for the combination was lower than the lowest mean AUC among the two single agent treatments, then the combination was sub-additive. If the synergy score was greater than zero, and the mean AUC for the combination was greater than the mean AUC for at least one of the single agent treatments, then the combination was antagonistic.

COLO205 cancer cells = experiment: In vitro combination study with Compound 1, Cell Titer-Glo (ATP) cell viability, 72 h; assay type: cell-based, human; settings: Table 5 drug combined with Compound 1; 72 h;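 further: Ten-by-ten dose matrices of both agents in duplicate plus single-agent dilutions, luminescent ATP read-out, percent activity per well relative to DMSO vehicle wells, synergy call from these matrices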
Description: (§10) Each combination pair was evaluated in an individual 384-well plate which contained variable doses of both compounds as single agents, as well as two, ten-by-ten matrices (in duplicate) that contained mixtures of the two test compounds. In brief, compounds were added to the cell test plates 16 hours after cell plating and then assessed for viability 72 hours later. Continuous cultures of tumor cells were maintained under standard cell culturing conditions (i.e. in a humidified chamber set at 37° C., containing atmosphere 5% carbon dioxide). […] Seventy-two hours after compound addition, ATP levels were measured to assess cell viability. Plating densities were chosen to ensure optimal linear growth over the 72 hour period.
(§11) Compound dilution and compound delivery to the assay plates were done on HighRes Robotic System (HighRes Biosolutions, Woburn, Mass., USA) with Echo™ Liquid Handler (Labcyte, Sunnyvale, Calif., USA). […] Next, these were used for compound transfer into cell assay plates. All wells were back-filled to give a constant percentage of DMSO.
(§12) The final DMSO concentration was held constant in all wells across the plate and was maintained at less than 0.5%. […] Cells treated with vehicle (DMSO) in two rows, or single compound serial dilutions in one plate columns/row served as the untreated control and single compound controls, respectively.
(§13) Compound activity in A549, COLO205, H460, HCT116, SW48, SW620 cancer cell lines was assessed using Cell Titer-Glo® (Promega [Madison, Wis., USA]). After 72 hours incubation, the plates were treated as per package insert protocol for the Promega Luminescence ATP Detection Systems. Briefly, 25 μL of cell lysis/substrate solution (provided in kit form) was added to each well and the plate was incubated at room temperature for 10 minutes. Luminescence was measured using a PHERAstar multi-label counter (BMG Labtech [Ortenberg, Germany]) or LEADseeker (GE Healthcare Life Sciences [Piscataway, N.J., USA]).
(§14) Numerical luminescence values were analyzed to generate EC50 curves and evaluate synergy. Raw Data reader files were uploaded along with automation workfiles that defined the plate and well contents. Percent activities were calculated for each well versus plate controls.
(§15) Each plate representing a single drug combination was analyzed separately. First, the viability measurements were normalized by scaling the data so that the median of the negative controls was 0 and the median of the positive controls was 100.
(§16) For the combination analysis, a response surface model was used to describe the relationship between the normalized viability and the drug concentrations. The data were fit to the model by minimizing the residual sum of squares. Based on the fitted response surface, plots of constant viability, called isobolograms, were produced.
(§17) The Combination Index and Nonlinear Blending were used as measures of drug synergy. To calculate Combination Index the 50% isobologram (which is the dose contour that has 50% viability) was used. […] A standard procedure was created to produce a call in order to characterize the viability effects for each combination (synergy, additivity, subadditivity, or antagonism). If the Combination Index existed then these measures were used to make the call.

SW620 cancer cells = experiment: as above; assay type: cell-based; settings: Table 5 drug combined with Compound 1; 72 h;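 further: Ten-by-ten dose matrices of both drugs in 384-well plates, luminescent ATP read-out, synergy evaluated against single-agent and DMSO vehicle controls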
Description: as §10, §11, §12, §13, §14, §15, §16, §17

HCT116 cancer cells = experiment: as above; assay type: cell-based; settings: Table 5 drug combined with Compound 1; 72 h;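 further: combination call from 10×10 dose matrices in duplicate, graded by synergy, with percent activity per well relative to DMSO vehicle controls on the same plate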
DU-145 (Prostate) = experiment: In vivo combination study, Cell Derived Xenograft; set-up: species or system mouse; settings: DU-145 (165 mm^3); Compound 1 60 mg/kg once daily Day 1-21; drug 10 mg/kg intravenously once weekly Days 1,8,15
Description: as §1
Method A; Cells were maintained in either immune deficient nude mice or immune competent mice by subcutaneous inoculation of tumor cells at various concentrations into respected mice. Method B: Patient Derived Tumor s were maintained in nude mice by subcutaneous inoculation of tumor pieces (approx. 2×2×2 mm) into nude mice. […]
Tumor size was measured by caliper and tumor volume was estimated using the equation V=(LW^2)/2, where L and W are tumor length and width, respectively and reported in cubic millimeters. […]
For synergy analyses, the observed differences in the log tumor values were used to calculate AUC values for each animal. […] The AUC for the control, or vehicle, group was calculated using the predicted values from the pairwise models described above. […]
where Ak and Bk are the k^th animal in the individual treatment groups and ABk is the k^th animal in combination treatment group. […] The standard error of the synergy score was calculated as the square root of the sum of squared standard errors across groups A, B, and AB. […]

H460 cancer cells = experiment: In vitro combination study with Compound 1, Cell Titer-Glo (ATP) cell viability, 72 h; assay type: cell-based; settings: Table 5 drug combined with Compound 1; 72 h;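 further: Ten-by-ten dose matrices of both drugs alongside single-agent dilutions, luminescence read 72 hours after compound addition, percent activity per well versus vehicle (DMSO) plate controls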
Description: as §10, §11, §12, §13, §14, §15, §16, §17

PHTXM-90Es (Esophagus) = experiment: In vivo combination study, Patient Derived Xenograft; set-up: species or system mouse
Description: as §1, §2, §3, §4, §5, §6, §7, §8

[2] = test system: PHTXM-35Es human primary esophagus cancer xenografts; experiment: as above; set-up: species or system mouse
Description: as §1, §2, §3, §4, §5, §6, §7, §8

A549 cancer cells = experiment: In vitro combination study with Compound 1, Cell Titer-Glo (ATP) cell viability, 72 h; assay type: cell-based; settings: Table 5 drug combined with Compound 1; 72 h;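 further: Ten-by-ten dose matrices of the two agents in duplicate, compounds added 16 h post-plating, activity relative to DMSO vehicle wells, call reflects synergy evaluation from luminescence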
[3] = test system: pancreatic cancer (MIA-PACA-2) cell line; experiment: In vitro combination study for selected compounds, additional cell lines; assay type: cell-based; settings: drug combined with Compound 1
Description: (§9) In vitro anti-proliferative effects of selected compounds were tested in additional cell lines, including ovarian cancer (SKOV3) and pancreatic cancer (MIA-PACA-2) cell lines.

[4] = test system: ovarian cancer (SKOV3) cell line; experiment: as above; assay type: cell-based; settings: drug combined with Compound 1
Description: as §9

H-1650 (Lung) = experiment: as above; assay type: cell-based; settings: drug combined with Compound 1
Description: as §9

CALU6 (Lung) = experiment: as above; assay type: cell-based; settings: drug combined with Compound 1
Description: as §9

PHTX-11C = experiment: In vivo combination study, xenograft; set-up: species or system mouse; settings: PHTX-11C (270 mm^3)
PHTX-09C (Colorectal) = experiment: In vivo combination study, Patient Derived Xenograft; set-up: species or system mouse; settings: PHTX-09C (155 mm^3)
[5] = Compound 1 40 mg/kg once daily Day 1-21, drug 15 mg/kg intravenously Days 1-3, 8-10, 15-17
[6] = Compound 1 40 mg/kg once daily Day 1-21, drug 25 mg/kg intravenously Days 1-3, 8-10, 15-17
[7] = Compound 1 60 mg/kg once daily Day 1-21, drug 15 mg/kg intravenously Days 1-3, 8-10, 15-17
[8] = Compound 1 60 mg/kg once daily Day 1-21, drug 25 mg/kg intravenously Days 1-3, 8-10, 15-17

SMILES: CC(=O)O[C@@]12CO[C@@H]1C[C@H](O)[C@@]1(C)C(=O)[C@H](O)C3=C(C)[C@@H](OC(=O)[C@H](O)[C@@H](NC(=O)OC(C)(C)C)c4ccccc4)C[C@@](O)([C@@H](OC(=O)c4ccccc4)[C@H]21)C3(C)C [Docetaxel]
- Result (combination with Compound 1, tumor growth) ([1]; PHTX-79Es (135 mm^3) FIG. 5A, Compound 1 40 mg/kg once daily Day 1-21, drug 10 mg/kg intravenously once weekly Days 1,8,15): Synergistic
- Result (combination with Compound 1, tumor growth) ([1]; PHTX-79Es (135 mm^3) FIG. 5A, Compound 1 60 mg/kg once daily Day 1-21, drug 10 mg/kg intravenously once weekly Days 1,8,15): additive
- antitumor activity ([1]; FIG. 5A): strong antitumor activity compared to either single treatment alone
- Call, anti-proliferative effect of combination with Compound 1, COLO205 (COLO205 cancer cells): Additivity (0.7 to 1.3)
- Call, anti-proliferative effect of combination with Compound 1, SW620 (SW620 cancer cells): Synergy (0 to 0.7)
- Call, anti-proliferative effect of combination with Compound 1, HCT116 (HCT116 cancer cells): Additivity (0.7 to 1.3)
- Result (combination with Compound 1, tumor growth) (DU-145 (Prostate)): Additive
- Call, anti-proliferative effect of combination with Compound 1, H460 (H460 cancer cells): Additivity (0.7 to 1.3)
- Result (combination with Compound 1, tumor growth) (PHTXM-90Es (Esophagus); PHTXM-90Es (220 mm^3), Compound 1 40 mg/kg once daily Day 1-21, drug 10 mg/kg intravenously once weekly Days 1,8,15): Additive
- Result (combination with Compound 1, tumor growth) (PHTXM-90Es (Esophagus); PHTXM-90Es (220 mm^3), Compound 1 60 mg/kg once daily Day 1-21, drug 10 mg/kg intravenously once weekly Days 1,8,15): Additive
- Result (combination with Compound 1, tumor growth) ([2]; PHTXM-35Es (150 mm^3) FIG. 4B, Compound 1 40 mg/kg once daily Day 1-21, drug 10 mg/kg intravenously once weekly Days 1,8,15): Synergistic
- Result (combination with Compound 1, tumor growth) ([2]; PHTXM-35Es (150 mm^3) FIG. 4B, Compound 1 60 mg/kg once daily Day 1-21, drug 10 mg/kg intravenously once weekly Days 1,8,15): Additive
- Result (combination with Compound 1, tumor growth) ([2]; PHTXM-35Es (190 mm^3), Compound 1 40 mg/kg once daily Day 1-21, drug 10 mg/kg intravenously once weekly Days 1,8,15): Synergistic
- Result (combination with Compound 1, tumor growth) ([2]; PHTXM-35Es (190 mm^3), Compound 1 60 mg/kg once daily Day 1-21, drug 10 mg/kg intravenously once weekly Days 1,8,15): Synergistic
- antitumor activity ([2]; combined with Compound 1, PHTXM-35Es human primary esophagus cancer xenografts, FIG. 4B): strong antitumor activity compared to either single treatment alone
- Call, anti-proliferative effect of combination with Compound 1, A549 (A549 cancer cells): Subadditivity (1.3 to 2)

SMILES: O=c1[nH]cc(F)c(=O)[nH]1 [Fluorouracil]
- In vitro combination effect with Compound 1, Pancreas MIA-PACA-2 [3]: Additive
- In vitro combination effect with Compound 1, Ovary SKOV3 [4]: Additive
- In vitro combination effect with Compound 1, Lung H-1650 (H-1650 (Lung)): Additive
- In vitro combination effect with Compound 1, Lung CALU6 (CALU6 (Lung)): Synergy
- Result (combination with Compound 1, tumor growth) ([1]; PHTXM-79Es (160 mm^3), Compound 1 60 mg/kg once daily Day 1-21, drug 25 mg/kg intravenously Days 1-3, 8-10, 15-17): Synergistic
- antitumor activity ([1]; FIG. 5B): strong antitumor activity compared to either single treatment alone
- Result (combination with Compound 1, tumor growth) (PHTX-11C; [5]): Additive
- Result (combination with Compound 1, tumor growth) (PHTX-11C; [6]): Additive
- Result (combination with Compound 1, tumor growth) (PHTX-11C; [7]): Additive
- Result (combination with Compound 1, tumor growth) (PHTX-11C; [8]): subadditive
- Result (combination with Compound 1, tumor growth) (PHTX-09C (Colorectal); [5]): Additive
- Result (combination with Compound 1, tumor growth) (PHTX-09C (Colorectal); [6]): Additive
- Result (combination with Compound 1, tumor growth) (PHTX-09C (Colorectal); [7]): Additive
- Result (combination with Compound 1, tumor growth) (PHTX-09C (Colorectal); [8]): subadditive
- Result (combination with Compound 1, tumor growth) (PHTXM-90Es (Esophagus); PHTXM-90Es (185 mm^3), Compound 1 60 mg/kg once daily Day 1-21, drug 25 mg/kg intravenously Days 1-3, 8-10, 15-17): Additive
- Result (combination with Compound 1, tumor growth) ([2]; PHTXM-35Es (240 mm^3), Compound 1 60 mg/kg once daily Day 1-21, drug 25 mg/kg intravenously Days 1-3, 8-10, 15-17): Additive
